Legend:
microsomal h-COX2 = target: T1, microsomal h-COX2 (Homo sapiens, UniProt P35354); experiment: Microsomal assay, inhibition of COX-2; assay type: biochemical; details: microsomal preparation from baculovirus infected SF9 cells; PGE2 by EIA
T1 construct: made in house; host or cells: baculovirus infected SF9 cells (microsomal preparation)
T1 sequence (P35354 18-604): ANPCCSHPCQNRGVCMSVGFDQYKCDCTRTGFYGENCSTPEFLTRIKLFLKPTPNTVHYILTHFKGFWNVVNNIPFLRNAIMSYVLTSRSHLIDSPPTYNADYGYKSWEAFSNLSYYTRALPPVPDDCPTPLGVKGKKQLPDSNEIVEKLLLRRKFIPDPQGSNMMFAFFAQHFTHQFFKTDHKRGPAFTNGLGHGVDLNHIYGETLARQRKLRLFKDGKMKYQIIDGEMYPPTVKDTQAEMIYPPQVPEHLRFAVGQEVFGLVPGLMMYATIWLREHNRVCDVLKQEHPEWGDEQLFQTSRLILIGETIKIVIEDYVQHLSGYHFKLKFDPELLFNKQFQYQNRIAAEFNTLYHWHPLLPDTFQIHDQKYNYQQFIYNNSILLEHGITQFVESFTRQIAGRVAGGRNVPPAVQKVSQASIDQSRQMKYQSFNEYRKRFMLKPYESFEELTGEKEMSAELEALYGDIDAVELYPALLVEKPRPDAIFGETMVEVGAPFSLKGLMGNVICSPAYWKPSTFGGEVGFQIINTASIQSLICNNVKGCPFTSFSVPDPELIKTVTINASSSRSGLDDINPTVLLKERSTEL
Experimental: (§1) Inhibitory activity against microsomal h-COX2 was assessed against a microsomal preparation from baculovirus infected SF9 cells. An aliquot of microsomal preparation was thawed slowly on ice and a 1/40,000 dilution prepared from it into the assay buffer (sterile water, degassed with argon containing 100 mM HEPES (pH 7.4), 10 mM EDTA (pH7.4), 1 mM phenol, 1 mM reduced glutathione, 20 mg/ml gelatin and 0.001 mM Hematin). Once diluted the enzyme solution was then sonicated for 5 seconds (Branson sonicator, setting 4, 1 cm tip) to ensure a homogeneous suspension. 155 μl enzyme solution was then added to each well of a 96-well microtitre plate containing either 5 μl test compound (40× required test concentration) or 5 μl DMSO for controls. Plates were then mixed and incubated at room temperature for 1 hour. Following the incubation period, 40 μl of 0.5 μM arachidonic acid was added to each well to give a final concentration of 0.1 μM. Plates were then mixed and incubated for exactly 10 minutes (room temperature) prior to addition of 25 μl 1M HCl (hydrochloric acid) to each well to stop the reaction. 25 μl of 1M NaOH (sodium hydroxide) was then added to each well to neutralise the solution prior to determination of PGE2 levels by enzyme immunoassay (EIA).
(§2) The following IC50 values for inhibition of COX-2 and COX-1 were obtained from the microsomal assay for compounds of the invention: […]

COX-1 = COX-1 (Homo sapiens, UniProt P23219); experiment: Microsomal assay, inhibition of COX-1; assay type: biochemical
Sequence of COX-1 (P23219 24-599): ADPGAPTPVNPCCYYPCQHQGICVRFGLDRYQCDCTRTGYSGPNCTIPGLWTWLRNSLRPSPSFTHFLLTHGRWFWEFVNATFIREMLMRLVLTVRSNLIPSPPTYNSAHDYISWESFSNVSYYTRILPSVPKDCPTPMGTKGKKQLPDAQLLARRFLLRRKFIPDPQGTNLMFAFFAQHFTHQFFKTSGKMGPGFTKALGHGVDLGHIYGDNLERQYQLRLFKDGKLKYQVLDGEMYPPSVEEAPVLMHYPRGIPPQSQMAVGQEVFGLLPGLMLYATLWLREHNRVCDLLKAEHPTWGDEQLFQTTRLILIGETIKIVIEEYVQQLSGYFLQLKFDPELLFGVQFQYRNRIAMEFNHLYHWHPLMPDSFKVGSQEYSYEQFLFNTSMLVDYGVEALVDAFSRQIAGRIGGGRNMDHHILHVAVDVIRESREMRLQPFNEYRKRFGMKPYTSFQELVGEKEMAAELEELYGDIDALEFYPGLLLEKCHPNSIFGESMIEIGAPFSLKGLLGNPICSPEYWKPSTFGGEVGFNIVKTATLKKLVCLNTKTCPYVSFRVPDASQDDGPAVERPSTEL
Experimental: as §1, §2

Compound | IC50 (microsomal h-COX2) [µM] | IC50 (COX-1) [µM]
CCCCNc1nc(-c2ccc(S(C)(=O)=O)cc2)cc(C(F)F)n1 [Example 2, N-butyl-4-(difluoromethyl)-6-[4-(methylsulfonyl)phenyl]pyrimidin-2-amine] | 0.017 | > 94
CCCCNc1nc(CF)cc(-c2ccc(S(C)(=O)=O)cc2)n1 [Example 1, N-Butyl-4-(fluoromethyl)-6-[4-(methylsulfonyl)phenyl]pyrimidin-2-amine] | 0.761 | > 10
